Measurements taken from patent US9784731B2, “Methods of monitoring and analyzing metabolic activity profiles diagnostic and therapeutic uses of same” (priority 2011, dated 2017).

Tests used:
many cell types = details: intracellular pH measurements, overnight incubation at 2 mM; cited from earlier work
[1] = in aqueous (physiological) buffers; cited from earlier work
hPBMCs = assay: metabolic activity (MA) test, extracellular acidification of PBMCs; format: cell-based, human; details: hPBMCs of cancer patients, increasing PSA concentrations, FIGS. 8A-D
Experimental: Fresh peripheral blood mononuclear cells (PBMCs) were isolated by Ficoll-Paque (UNI-SEP, Novamed) and gradient centrifugation. The pellet was resuspended in working solution (WS) (PBS with calcium and magnesium) including the fluorescent probe (HPTS) at a final concentration of 5×10^6 cells/ml.
Each well in a black non-binding, low-volume 384 multi-well plate (Greiner Bio-One) was loaded with 10 μl of the PBMCs solution and 10 μl of working solution plus HPTS including one of ten reagents in 8 increasing concentrations. Thus the final concentration of the probe in each well was 1 μM, and the final concentration of the PBMCs was 2.5×10^6 cells/ml in 20 μl physiological working solution containing 10 mM phosphate buffer around pH 7.3. […] The acidification process was monitored each 5 min during 1 hour of incubation at 37° C. by a commercial fluorescence scanner (TECAN Infinite M200). First, the scanner monitored the acidification process without sealing (“OPEN” mode) during 30 min (6 cycles) and then, to avoid ventilation of CO2 and NH3 from each well, the multi-well plate was sealed hermetically (ThermalSeal RT™, EXCEL Scientific, Inc.) (“CLOSE” mode). Next, the acidification process was monitored again during 30 min (6 cycles). In order to increase the signal to noise ratio, the fluorescence intensities at 513 nm were measured sequentially under excitation at 455 nm and 403 nm per well. […]

## O=S(=O)(O)c1cc(O)c2ccc3c(S(=O)(=O)O)cc(S(=O)(=O)O)c4ccc1c2c34 [HPTS, 8-Hydroxypyrene-1,3,6-trisulfonic acid]
Many cell types
  toxicity: low-toxicity
[1]
  pKa: ~7.3

## PSA: normal prostate tissue specific antigen peptide (146-154aa) recognized by cytotoxic T lymphocytes (PALGTTCYA; UniProt P07288 146-154, looked up, fragment)
hPBMCs
  MA-test profile under stimulation: marked peaks at optimal concentrations
